Converted amounts (≈) assume the structure as drawn.
Assays:
Assay type in all cases: cell-based
[1] = test system: Staphylococcus aureus 209P JC-1; assay: Antibacterial Activity (in medicinal field), MIC; conditions: Staphylococcus aureus, 209P, read-out: Minimal Inhibitory Conc. (MIC)
[2] = test system: Bacillus anthracis No. 119; assay: microbe, parasite or virus in culture; conditions: NO.119, read-out: Minimal Inhibitory Conc. (MIC)
[3] = test system: Escherichia coli NIHJ JC-2; assay: Antibacterial Activity (in medicinal field), MIC; conditions: NIHJJC2, read-out: Minimal Inhibitory Conc. (MIC)
[4] = test system: Salmonella typhi O-901-W; assay: Antibacterial Activity (in medicinal field), MIC; conditions: Salmonella enterica, read-out: Minimal Inhibitory Conc. (MIC)
[5] = test system: Shigella sonnei EW 33 Type I; assay: Antibacterial Activity (in medicinal field), MIC; conditions: EW33TYPEI; Shigella sonnei EW 33 Type I; read-out: Minimal Inhibitory Conc. (MIC)
[6] = test system: Klebsiella pneumoniae PCI-602; assay: Antibacterial Activity (in medicinal field), MIC; conditions: PCI602, read-out: Minimal Inhibitory Conc. (MIC)
[7] = test system: Proteus vulgaris OX-19; assay: Antibacterial Activity (in medicinal field), MIC; conditions: OX19, read-out: Minimal Inhibitory Conc. (MIC)
[8] = test system: Serratia marcescens MB-3848; assay: Antibacterial Activity (in medicinal field), MIC; conditions: MB3848, read-out: Minimal Inhibitory Conc. (MIC)
[9] = test system: Pseudomonas cepacia M-0527; assay: Antibacterial Activity (in medicinal field), MIC; conditions: Burkholderia cepacia, M0527, read-out: Minimal Inhibitory Conc. (MIC)
[10] = test system: Pseudomonas maltophilia M-0627; assay: Antibacterial Activity (in medicinal field), MIC; conditions: Stenotrophomonas maltophilia, M0627, read-out: Minimal Inhibitory Conc. (MIC)
[11] = test system: Candida alubicans GA-24; assay: Antifungal Activity (in Medicinal Field), MIC; conditions: GA24; Candida alubicans GA-24; read-out: Minimal Inhibitory Conc. (MIC)
[12] = test system: Cryptococcus neoformans Cr-1; assay: Antifungal Activity (in Medicinal Field), MIC; conditions: CR1, read-out: Minimal Inhibitory Conc. (MIC)
[13] = test system: Trichophyton metagrophytes 530324; assay: Antifungal Activity (in Medicinal Field), MIC; conditions: Trichophyton metagrophytes 530324; read-out: Minimal Inhibitory Conc. (MIC)
[14] = test system: Trichophyton interdigitale; assay: Antifungal Activity (in Medicinal Field), MIC; conditions: read-out: Minimal Inhibitory Conc. (MIC)
[15] = test system: Aspergillus fumigatus Saito; assay: Antifungal Activity (in Medicinal Field), MIC; conditions: read-out: Minimal Inhibitory Conc. (MIC)
[16] = test system: Aspergillus flavus ATCC 6275; assay: Antifungal Activity (in Industrial Field), MIC; conditions: ATCC6275, read-out: Minimal Inhibitory Conc. (MIC)
[17] = test system: Aspergillus terreus PQMD 82 j; assay: Antifungal Activity (in Industrial Field), MIC; conditions: PQMD82J, read-out: Minimal Inhibitory Conc. (MIC)
[18] = test system: Penicillium luteum ATCC 9644; assay: Antifungal Activity (in Industrial Field), MIC; conditions: Ascospirella lutea, ATCC9644, read-out: Minimal Inhibitory Conc. (MIC)
[19] = test system: Mucor spinescens IAM Mu3; assay: Antifungal Activity (in Industrial Field), MIC; conditions: IAMMU3, read-out: Minimal Inhibitory Conc. (MIC)
[20] = test system: Cladosporium herbarum IAM F-517; assay: Antifungal Activity (in Industrial Field), MIC; conditions: IAMF517, read-out: Minimal Inhibitory Conc. (MIC)
[21] = test system: Pullularia pullulans IAM F-24; assay: Antifungal Activity (in Industrial Field), MIC; conditions: IAMF24; Pullularia pullulans IAM F-24; read-out: Minimal Inhibitory Conc. (MIC)
[22] = test system: Trichoderma T-1 ATCC 9645; assay: Antifungal Activity (in Industrial Field), MIC; conditions: ATCC9645, read-out: Minimal Inhibitory Conc. (MIC)
[23] = test system: Chaetomium globosum ATCC 6205; assay: Antifungal Activity (in Industrial Field), MIC; conditions: ATCC6205, read-out: Minimal Inhibitory Conc. (MIC)
[24] = test system: Aspergillus fumigatus IAM 2621; assay: Antifungal Activity (in Industrial Field), MIC; conditions: IAM2621, read-out: Minimal Inhibitory Conc. (MIC)
[25] = test system: Rhizopus nigricans S.N. 32; assay: Antifungal Activity (in Industrial Field), MIC; conditions: Rhizopus stolonifer, read-out: Minimal Inhibitory Conc. (MIC)
[26] = test system: Xanthomonas campestris pv. oryzae; assay: microbe, parasite or virus in culture; conditions: read-out: Minimal Inhibitory Conc. (MIC)
[27] = test system: Xanthomonas campestris pv. citri; assay: Antibacterial and Antifungal Activities (in Agricultural Field), MIC; conditions: read-out: Minimal Inhibitory Conc. (MIC)
[28] = test system: Pseudomonas syringae pv. tabaci; assay: as above; conditions: read-out: Minimal Inhibitory Conc. (MIC)
[29] = test system: Erwinia carotovora; assay: as above; conditions: Pectobacterium carotovorum, read-out: Minimal Inhibitory Conc. (MIC)
[30] = test system: Corynebacterium michiganense; assay: as above; conditions: Clavibacter michiganensis; Corynebacterium michiganense; read-out: Minimal Inhibitory Conc. (MIC)
[31] = test system: Phricularia oryzae; assay: as above; conditions: read-out: Minimal Inhibitory Conc. (MIC)
[32] = test system: Diaporithe citri; assay: as above; conditions: read-out: Minimal Inhibitory Conc. (MIC)
[33] = test system: Colletotrichum lagenarium; assay: as above; conditions: Colletotrichum orbiculare, read-out: Minimal Inhibitory Conc. (MIC)
[34] = test system: Alternaria kikuchiana; assay: as above; conditions: read-out: Minimal Inhibitory Conc. (MIC)
[35] = test system: Glomerella cingulata; assay: as above; conditions: Colletotrichum gloeosporioides, read-out: Minimal Inhibitory Conc. (MIC)
[36] = test system: Botrytis cinerea; assay: as above; conditions: read-out: Minimal Inhibitory Conc. (MIC)
[37] = test system: Fusarium oxysporum f. lycopersici; assay: as above; conditions: read-out: Minimal Inhibitory Conc. (MIC)
[38] = test system: Gibberella fujikuroi; assay: as above; conditions: Fusarium fujikuroi, read-out: Minimal Inhibitory Conc. (MIC)
[39] = test system: Cochliobolus miyabeanus; assay: as above; conditions: Bipolaris oryzae, read-out: Minimal Inhibitory Conc. (MIC)
[40] = test system: Pellicularia filamentosa; assay: as above; conditions: read-out: Minimal Inhibitory Conc. (MIC)

## IC(I)=C(I)Cn1ncnn1 [2-(2',3',3'-triiodoallyl)tetrazole]
[1]
  MIC: 6.25 µg/mL (≈ 12.8 µM)
[2]
  MIC: 1.56 µg/mL (≈ 3.2 µM)
[3]
  MIC: 12.5 µg/mL (≈ 25.6 µM)
[4]
  MIC: 6.25 µg/mL (≈ 12.8 µM)
[5]
  MIC: 6.25 µg/mL (≈ 12.8 µM)
[6]
  MIC: 12.5 µg/mL (≈ 25.6 µM)
[7]
  MIC: 12.5 µg/mL (≈ 25.6 µM)
[8]
  MIC: 6.25 µg/mL (≈ 12.8 µM)
[9]
  MIC: 1.56 µg/mL (≈ 3.2 µM)
[10]
  MIC: 1.56 µg/mL (≈ 3.2 µM)
[11]
  MIC: 0.19 µg/mL (≈ 0.389 µM)
[12]
  MIC: 0.78 µg/mL (≈ 1.6 µM)
[13]
  MIC: 0.09 µg/mL (≈ 0.184 µM)
[14]
  MIC: 0.09 µg/mL (≈ 0.184 µM)
[15]
  MIC: 0.19 µg/mL (≈ 0.389 µM)
[16]
  MIC: 0.78 µg/mL (≈ 1.6 µM)
[17]
  MIC: 0.78 µg/mL (≈ 1.6 µM)
[18]
  MIC: 6.25 µg/mL (≈ 12.8 µM)
[19]
  MIC: 1.56 µg/mL (≈ 3.2 µM)
[20]
  MIC: 6.25 µg/mL (≈ 12.8 µM)
[21]
  MIC: 0.76 µg/mL (≈ 1.56 µM)
[22]
  MIC: 3.13 µg/mL (≈ 6.42 µM)
[23]
  MIC: 12.5 µg/mL (≈ 25.6 µM)
[24]
  MIC: 6.25 µg/mL (≈ 12.8 µM)
[25]
  MIC: 3.13 µg/mL (≈ 6.42 µM)
[26]
  MIC: 6.25 µg/mL (≈ 12.8 µM)
[27]
  MIC: 25 µg/mL (≈ 51.2 µM)
[28]
  MIC: > 100 µg/mL
[29]
  MIC: > 100 µg/mL
[30]
  MIC: 12.5 µg/mL (≈ 25.6 µM)
[31]
  MIC: 3.13 µg/mL (≈ 6.42 µM)
[32]
  MIC: 0.78 µg/mL (≈ 1.6 µM)
[33]
  MIC: 0.78 µg/mL (≈ 1.6 µM)
[34]
  MIC: 3.13 µg/mL (≈ 6.42 µM)
[35]
  MIC: 0.39 µg/mL (≈ 0.799 µM)
[36]
  MIC: 0.39 µg/mL (≈ 0.799 µM)
[37]
  MIC: 1.56 µg/mL (≈ 3.2 µM)
[38]
  MIC: 0.39 µg/mL (≈ 0.799 µM)
[39]
  MIC: 1.56 µg/mL (≈ 3.2 µM)
[40]
  MIC: 50 µg/mL (≈ 102 µM)
